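Briefly, cells in 96-well plates were exposed to five compound concentrations for 48 h, and endpoints were estimated by linear interpolation. Here, GI50 denotes the concentration required for 50% inhibition of growth.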 Activity calls are given as the source filed them. Rule as the data show it: active = GI50 up to about 1.1 µM and inactive = higher.
Experiments:
Assay in all cases: NCI-60 cell line screen, 48 h
UACC-257 = test system: UACC-257
COLO 205 = test system: COLO 205
SK-MEL-28 = test system: SK-MEL-28
NCI-H460 = test system: NCI-H460
OVCAR-4 = test system: OVCAR-4
HCT-15 = test system: HCT-15
M19-MEL = test system: M19-MEL
SNB-78 = test system: SNB-78
EKVX = test system: EKVX
HCC 2998 = test system: HCC 2998
M14 = test system: M14
A549 = test system: A549
RXF 393 = test system: RXF 393
U-251 = test system: U-251
ACHN = test system: ACHN
HOP-62 = test system: HOP-62
DMS-114 = test system: DMS-114
HCT-116 = test system: HCT-116
MOLT-4 = test system: MOLT-4
HOP-92 = test system: HOP-92
Malme-3M = test system: Malme-3M
HL-60 = test system: HL-60
DMS-273 = test system: DMS-273
OVCAR-3 = test system: OVCAR-3
NCI-H226 = test system: NCI-H226
OVCAR-5 = test system: OVCAR-5
SK-MEL-2 = test system: SK-MEL-2
NCI-H23 = test system: NCI-H23
SF-268 = test system: SF-268
SK-OV-3 = test system: SK-OV-3
XF498 = test system: XF498
UACC-62 = test system: UACC-62
HT-29 = test system: HT-29
CCRF-CEM = test system: CCRF-CEM
IGROV-1 = test system: IGROV-1
SK-MEL-5 = test system: SK-MEL-5
DLD-1 = test system: DLD-1
UO-31 = test system: UO-31
NCI-H522 = test system: NCI-H522
SNB-19 = test system: SNB-19
SNB-75 = test system: SNB-75
RPMI-8226 = test system: RPMI-8226
A498 = test system: A498
SW-620 = test system: SW-620
SF-295 = test system: SF-295
LOX IMVI = test system: LOX IMVI
786-0 = test system: 786-0
KM12 = test system: KM12
LXFL 529 = test system: LXFL 529
OVCAR-8 = test system: OVCAR-8
SF-539 = test system: SF-539
KM-20L2 = test system: KM-20L2
CAKI-1 = test system: CAKI-1
SN12C = test system: SN12C
RXF 631 = test system: RXF 631
K562 = test system: K562
TK-10 = test system: TK-10
SR = test system: SR

Q: For `CC(=O)N1CC2Nc3ccccc3C2CC1CO` (configuration not stated), which GI50 (UACC-257) is on record?
A: > 100 µM (inactive)

Q: What about the GI50 (COLO 205) of the same molecule?
A: > 100 µM (inactive)

Q: What about the GI50 (SK-MEL-28) of the same molecule?
A: > 100 µM (inactive)

Q: And the GI50 (NCI-H460)?
A: > 100 µM (inactive)

Q: What about the GI50 (OVCAR-4) of the same molecule?
A: > 100 µM (inactive)

Q: What about the GI50 (HCT-15) of the same molecule?
A: > 100 µM

Q: What about the GI50 (M19-MEL) of the same molecule?
A: > 100 µM (inactive)

Q: And the GI50 (SNB-78)?
A: > 100 µM (inactive)

Q: What about the GI50 (EKVX) of the same molecule?
A: > 100 µM (inactive)

Q: What about the GI50 (HCC 2998) of the same molecule?
A: > 100 µM (inactive)

Q: And the GI50 (M14)?
A: > 100 µM (inactive)

Q: And the GI50 (A549)?
A: > 100 µM (inactive)

Q: And the GI50 (RXF 393)?
A: > 100 µM (inactive)

Q: And the GI50 (U-251)?
A: > 100 µM (inactive)

Q: And the GI50 (ACHN)?
A: > 100 µM (inactive)

Q: What about the GI50 (HOP-62) of the same molecule?
A: > 100 µM (inactive)

Q: And the GI50 (DMS-114)?
A: > 100 µM (inactive)

Q: And the GI50 (HCT-116)?
A: > 100 µM (inactive)

Q: What about the GI50 (MOLT-4) of the same molecule?
A: > 100 µM (inactive)

Q: And the GI50 (HOP-92)?
A: > 100 µM (inactive)

Q: And the GI50 (Malme-3M)?
A: > 100 µM (inactive)

Q: And the GI50 (HL-60)?
A: > 100 µM (inactive)

Q: And the GI50 (DMS-273)?
A: > 100 µM (inactive)

Q: What about the GI50 (OVCAR-3) of the same molecule?
A: > 100 µM (inactive)

Q: And the GI50 (NCI-H226)?
A: > 100 µM (inactive)

Q: And the GI50 (OVCAR-5)?
A: > 100 µM (inactive)

Q: What about the GI50 (SK-MEL-2) of the same molecule?
A: > 100 µM (inactive)

Q: And the GI50 (NCI-H23)?
A: > 100 µM (inactive)

Q: What about the GI50 (SF-268) of the same molecule?
A: > 100 µM (inactive)

Q: What about the GI50 (SK-OV-3) of the same molecule?
A: > 100 µM (inactive)

Q: What about the GI50 (XF498) of the same molecule?
A: > 100 µM (inactive)

Q: What about the GI50 (UACC-62) of the same molecule?
A: > 100 µM (inactive)

Q: What about the GI50 (HT-29) of the same molecule?
A: > 100 µM (inactive)

Q: What about the GI50 (CCRF-CEM) of the same molecule?
A: > 100 µM (inactive)

Q: And the GI50 (IGROV-1)?
A: > 100 µM (inactive)

Q: And the GI50 (SK-MEL-5)?
A: > 100 µM (inactive)

Q: What about the GI50 (DLD-1) of the same molecule?
A: > 100 µM (inactive)

Q: What about the GI50 (UO-31) of the same molecule?
A: > 100 µM (inactive)

Q: And the GI50 (NCI-H522)?
A: > 100 µM (inactive)

Q: What about the GI50 (SNB-19) of the same molecule?
A: > 100 µM (inactive)

Q: What about the GI50 (SNB-75) of the same molecule?
A: 17.7 µM (inactive)

Q: And the GI50 (RPMI-8226)?
A: > 100 µM (inactive)

Q: And the GI50 (A498)?
A: > 100 µM (inactive)

Q: What about the GI50 (SW-620) of the same molecule?
A: > 100 µM (inactive)

Q: What about the GI50 (SF-295) of the same molecule?
A: > 100 µM (inactive)

Q: What about the GI50 (LOX IMVI) of the same molecule?
A: > 100 µM (inactive)

Q: What about the GI50 (786-0) of the same molecule?
A: > 100 µM (inactive)

Q: What about the GI50 (KM12) of the same molecule?
A: > 100 µM (inactive)

Q: What about the GI50 (LXFL 529) of the same molecule?
A: > 100 µM (inactive)

Q: What about the GI50 (OVCAR-8) of the same molecule?
A: > 100 µM (inactive)

Q: And the GI50 (SF-539)?
A: > 100 µM (inactive)

Q: And the GI50 (KM-20L2)?
A: > 100 µM (inactive)

Q: What about the GI50 (CAKI-1) of the same molecule?
A: > 100 µM (inactive)

Q: What about the GI50 (SN12C) of the same molecule?
A: > 100 µM (inactive)

Q: What about the GI50 (RXF 631) of the same molecule?
A: > 100 µM (inactive)

Q: And the GI50 (K562)?
A: > 100 µM (inactive)

Q: And the GI50 (TK-10)?
A: > 100 µM (inactive)

Q: `CC(C)(C)Sc1nnc(SC(C)(C)C)c2c(SC(C)(C)C)nnc(O)c12` was tested. Which GI50 (UACC-257) did it give?
A: 13.6 µM (inactive)

Q: What about the GI50 (COLO 205) of the same molecule?
A: 12.4 µM (inactive)

Q: And the GI50 (NCI-H460)?
A: 6.25 µM (inactive)

Q: What about the GI50 (OVCAR-4) of the same molecule?
A: 2.16 µM (inactive)

Q: And the GI50 (HCT-15)?
A: 4.31 µM

Q: And the GI50 (M19-MEL)?
A: 4.37 µM (inactive)

Q: What about the GI50 (SNB-78) of the same molecule?
A: 12.2 µM (inactive)

Q: And the GI50 (EKVX)?
A: 12.1 µM (inactive)

Q: What about the GI50 (HCC 2998) of the same molecule?
A: 11.5 µM (inactive)

Q: And the GI50 (M14)?
A: 14.8 µM (inactive)

Q: And the GI50 (SR)?
A: 4.14 µM (inactive)

Q: What about the GI50 (A549) of the same molecule?
A: 4.59 µM (inactive)

Q: And the GI50 (RXF 393)?
A: 3.39 µM (inactive)

Q: What about the GI50 (U-251) of the same molecule?
A: 5.62 µM (inactive)

Q: And the GI50 (HOP-62)?
A: 13.9 µM (inactive)

Q: And the GI50 (DMS-114)?
A: 4.31 µM (inactive)

Q: And the GI50 (HCT-116)?
A: 3.78 µM (inactive)

Q: What about the GI50 (MOLT-4) of the same molecule?
A: 3.37 µM (inactive)

Q: And the GI50 (HOP-92)?
A: 2.49 µM (inactive)

Q: And the GI50 (Malme-3M)?
A: 13.1 µM (inactive)

Q: And the GI50 (HL-60)?
A: 2.14 µM (inactive)

Q: And the GI50 (DMS-273)?
A: 7.8 µM (inactive)

Q: What about the GI50 (OVCAR-3) of the same molecule?
A: 10.7 µM (inactive)

Q: And the GI50 (NCI-H226)?
A: 15.2 µM (inactive)

Q: And the GI50 (OVCAR-5)?
A: 4.61 µM (inactive)

Q: What about the GI50 (NCI-H23) of the same molecule?
A: 10.9 µM (inactive)

Q: What about the GI50 (SF-268) of the same molecule?
A: 7.53 µM (inactive)

Q: And the GI50 (SK-OV-3)?
A: 17.9 µM (inactive)

Q: What about the GI50 (XF498) of the same molecule?
A: 15.3 µM (inactive)

Q: And the GI50 (UACC-62)?
A: 9.91 µM (inactive)

Q: And the GI50 (HT-29)?
A: 6.03 µM (inactive)

Q: And the GI50 (CCRF-CEM)?
A: 7.5 µM (inactive)

Q: And the GI50 (IGROV-1)?
A: 8.51 µM (inactive)

Q: What about the GI50 (SK-MEL-5) of the same molecule?
A: 5.35 µM (inactive)

Q: What about the GI50 (DLD-1) of the same molecule?
A: 10.9 µM (inactive)

Q: What about the GI50 (UO-31) of the same molecule?
A: 5.73 µM (inactive)

Q: And the GI50 (NCI-H522)?
A: 3.61 µM (inactive)

Q: What about the GI50 (SNB-19) of the same molecule?
A: 11.6 µM (inactive)

Q: What about the GI50 (SNB-75) of the same molecule?
A: 11.8 µM (inactive)

Q: What about the GI50 (RPMI-8226) of the same molecule?
A: 2.8 µM (inactive)

Q: And the GI50 (A498)?
A: 14 µM (inactive)

Q: What about the GI50 (SW-620) of the same molecule?
A: 6.87 µM (inactive)

Q: And the GI50 (SF-295)?
A: 11.4 µM (inactive)

Q: What about the GI50 (LOX IMVI) of the same molecule?
A: 11.7 µM (inactive)

Q: What about the GI50 (786-0) of the same molecule?
A: 10.1 µM (inactive)

Q: And the GI50 (KM12)?
A: 12.9 µM (inactive)

Q: And the GI50 (LXFL 529)?
A: 10.6 µM (inactive)

Q: What about the GI50 (OVCAR-8) of the same molecule?
A: 10 µM (inactive)

Q: And the GI50 (SF-539)?
A: 10.6 µM (inactive)

Q: And the GI50 (KM-20L2)?
A: 10.4 µM (inactive)

Q: And the GI50 (CAKI-1)?
A: 3.58 µM (inactive)

Q: What about the GI50 (SN12C) of the same molecule?
A: 10.2 µM (inactive)

Q: What about the GI50 (RXF 631) of the same molecule?
A: 3.2 µM (inactive)

Q: What about the GI50 (K562) of the same molecule?
A: 4.74 µM (inactive)

Q: What about the GI50 (TK-10) of the same molecule?
A: 23.2 µM (inactive)

From ChEMBL document CHEMBL1201862, “PubChem BioAssay data set” (2004)
